Results on 11 molecules are retold here after US8993752B2, “Neprilysin inhibitors” (Theravance Biopharma R&D IP, LLC, priority 2011, dated 2015).

Where only a bound is given, the exact number is not on record here.

This test deals with T1, human NEP (Homo sapiens, UniProt P08473).
T1 construct: purchased R&D Systems, Minneapolis, Minn; 1182-ZN
T1 sequence (P08473 whole entry): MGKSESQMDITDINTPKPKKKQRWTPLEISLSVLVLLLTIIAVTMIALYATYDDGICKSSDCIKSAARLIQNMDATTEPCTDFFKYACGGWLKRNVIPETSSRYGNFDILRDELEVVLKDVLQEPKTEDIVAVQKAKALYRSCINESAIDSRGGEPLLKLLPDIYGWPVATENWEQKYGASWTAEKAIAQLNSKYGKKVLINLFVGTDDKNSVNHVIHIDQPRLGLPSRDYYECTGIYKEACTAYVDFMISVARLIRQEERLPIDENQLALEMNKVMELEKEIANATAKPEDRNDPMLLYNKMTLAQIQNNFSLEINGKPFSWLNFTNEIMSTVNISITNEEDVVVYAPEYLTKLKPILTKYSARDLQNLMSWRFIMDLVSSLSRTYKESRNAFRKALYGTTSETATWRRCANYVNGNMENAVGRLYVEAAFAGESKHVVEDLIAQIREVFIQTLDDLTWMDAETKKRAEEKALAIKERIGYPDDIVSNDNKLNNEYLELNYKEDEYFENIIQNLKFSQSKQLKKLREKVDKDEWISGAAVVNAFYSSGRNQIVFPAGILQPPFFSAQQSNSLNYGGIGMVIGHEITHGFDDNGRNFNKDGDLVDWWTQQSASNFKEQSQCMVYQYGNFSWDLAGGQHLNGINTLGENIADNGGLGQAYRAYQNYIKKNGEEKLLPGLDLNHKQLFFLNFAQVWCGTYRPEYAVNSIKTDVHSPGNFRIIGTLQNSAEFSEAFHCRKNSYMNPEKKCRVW
The test can be described thus: In vitro enzyme inhibition assay at human NEP (fluorogenic peptide substrate). Conditions: recombinant human NEP; substrate Mca-D-Arg-Arg-Leu-Dap-(Dnp)-OH 10 μM; 37° C.; values given as ranges; read-out: pKi values at human NEP (converted). In kind it is biochemical. The protocol:
The inhibitory activities of compounds at human and rat neprilysin (EC 3.4.24.11; NEP) and human angiotensin converting enzyme (ACE) were determined using in vitro assays as described below.
Recombinant human NEP and recombinant human ACE were obtained commercially (R&D Systems, Minneapolis, Minn., catalog numbers 1182-ZN and 929-ZN, respectively). The fluorogenic peptide substrate Mca-D-Arg-Arg-Leu-Dap-(Dnp)-OH (Medeiros et al. (1997) Braz. J. Med. Biol. Res. 30:1157-62; Anaspec, San Jose, Calif.) and Abz-Phe-Arg-Lys(Dnp)-Pro-OH (Araujo et al. (2000) Biochemistry 39:8519-8525; Bachem, Torrance, Calif.) were used in the NEP and ACE assays respectively.
The assays were performed in 384-well white opaque plates at 37° C. using the fluorogenic peptide substrates at a concentration of 10 μM in Assay Buffer (NEP: 50 mM HEPES, pH 7.5, 100 mM NaCl, 0.01% polyethylene glycol sorbitan monolaurate (Tween-20), 10 μM ZnSO4; ACE: 50 mM HEPES, pH 7.5, 100 mM NaCl, 0.01% Tween-20, 1 μM ZnSO4).
Test compounds were assayed over the range of concentrations from 10 μM to 20 pM. Test compounds were added to the enzymes and incubated for 30 minute at 37° C. prior to initiating the reaction by the addition of substrate. Reactions were terminated after 20 minutes of incubation at 37° C. by the addition of glacial acetic acid to a final concentration of 3.6% (v/v).
Plates were read on a fluorometer with excitation and emission wavelengths set to 320 nm and 405 nm, respectively Inhibition constants were obtained by nonlinear regression of the data using the equation (GraphPad Software, Inc., San Diego, Calif.): v=v0/[1+(I/K′)] where v is the reaction rate, v0 is the uninhibited reaction rate, I is the inhibitor concentration and K′ is the apparent inhibition constant.
Compounds of the invention were tested in this assay and found to have pKi values at human NEP as follows.
Take `O=C(N[C@H](Cc1ccccc1Cl)[C@@H](O)C(=O)O)c1cc(C(=O)O)n(Cc2ccc(Cl)c(C(F)(F)F)c2)n1` [Example 2-18, 5-[(1R,2R)-2-Carboxy-1-(2-chloro-benzyl)-2-hydroxy-ethylcarbamoyl]-2-(4-chloro-3-trifluoromethyl-benzyl)-2H-pyrazole-3-carboxylic acid]: the Ki is 12.6 to 100 nM.
Turning to `O=C(N[C@H](Cc1ccccc1Cl)[C@@H](O)C(=O)O)c1cc(C(=O)O)n(Cc2ccccc2Cl)n1` [Example 2-19, 5-[(1R,2R)-2-Carboxy-1-(2-chloro-benzyl)-2-hydroxy-ethylcarbamoyl]-2-(2-chloro-benzyl)-2H-pyrazole-3-carboxylic acid], the Ki is 1.26 to 10 nM.
As to `O=C(N[C@H](Cc1ccccc1Cl)[C@@H](O)C(=O)O)c1cc(C(=O)O)n(Cc2ccc(F)cc2)n1` [Example 2-20, 5-[(1R,2R)-2-Carboxy-1-(2-chloro-benzyl)-2-hydroxy-ethylcarbamoyl]-2-(4-fluoro-benzyl)-2H-pyrazole-3-carboxylic acid], the Ki is 1.26 to 10 nM.
The same measure for `COc1ccc(Cn2nc(C(=O)N[C@H](Cc3ccccc3Cl)[C@@H](O)C(=O)O)cc2C(=O)O)cc1` [Example 2-21, 5-[(1R,2R)-2-Carboxy-1-(2-chloro-benzyl)-2-hydroxy-ethylcarbamoyl]-2-(4-methoxy-benzyl)-2H-pyrazole-3-carboxylic acid]: at most 1 nM.
The same measure for `O=C(N[C@H](Cc1ccccc1Cl)[C@@H](O)C(=O)O)c1cc(C(=O)O)n(Cc2ccc(C(F)(F)F)cc2)n1` [Example 2-25, 5-[(1R,2R)-2-Carboxy-1-(2-chloro-benzyl)-2-hydroxy-ethylcarbamoyl]-2-(4-trifluoromethyl-benzyl)-2H-pyrazole-3-carboxylic acid]: 1.26 to 10 nM; for `O=C(N[C@H](Cc1ccccc1Cl)[C@@H](O)C(=O)O)c1cc(C(=O)O)n(Cc2ccc(OC(F)F)cc2)n1` [Example 2-26, 5-[(1R,2R)-2-Carboxy-1-(2-chloro-benzyl)-2-hydroxy-ethylcarbamoyl]-2-(4-difluoromethoxy-benzyl)-2H-pyrazole-3-carboxylic acid]: at most 1 nM; for `COc1ccc(Cn2nc(C(=O)N[C@H](Cc3ccccc3Cl)[C@@H](O)C(=O)O)cc2C(=O)O)c(F)c1F` [Example 2-27, 5-[(1R,2R)-2-Carboxy-1-(2-chloro-benzyl)-2-hydroxy-ethylcarbamoyl]-2-(2,3-difluoro-4-methoxy-benzyl)-2H-pyrazole-3-carboxylic acid]: at most 1 nM.
Take `COc1cc(F)c(Cn2nc(C(=O)N[C@H](Cc3ccccc3Cl)[C@@H](O)C(=O)O)cc2C(=O)O)c(F)c1` [Example 2-32, 5-[(1R,2R)-2-Carboxy-1-(2-chloro-benzyl)-2-hydroxy-ethylcarbamoyl]-2-(2,6-difluoro-4-methoxy-benzyl)-2H-pyrazole-3-carboxylic acid]: the Ki was at most 1 nM.
Take `O=C(N[C@H](Cc1ccccc1Cl)[C@@H](O)C(=O)O)c1cc(C(=O)O)n(Cc2ccc(OC(F)(F)F)cc2)n1` [Example 2-33, 5-[(1R,2R)-2-Carboxy-1-(2-chloro-benzyl)-2-hydroxy-ethylcarbamoyl]-2-(4-trifluoromethoxy-benzyl)-2H-pyrazole-3-carboxylic acid]: the Ki was at most 1 nM.
The same measure for `COc1c(F)cc(Cn2nc(C(=O)N[C@H](Cc3ccccc3Cl)[C@@H](O)C(=O)O)cc2C(=O)O)cc1F` [Example 2-34, 5-[(1R,2R)-2-Carboxy-1-(2-chloro-benzyl)-2-hydroxy-ethylcarbamoyl]-2-(3,5-difluoro-4-methoxy-benzyl)-2H-pyrazole-3-carboxylic acid]: at most 1 nM; for `COc1c(F)c(F)c(Cn2nc(C(=O)N[C@H](Cc3ccccc3Cl)[C@@H](O)C(=O)O)cc2C(=O)O)c(F)c1F` [Example 2-35, 5-[(1R,2R)-2-Carboxy-1-(2-chloro-benzyl)-2-hydroxy-ethylcarbamoyl]-2-(2,3,5,6-tetrafluoro-4-methoxy-benzyl)-2H-pyrazole-3-carboxylic acid]: at most 1 nM.
